Laboratory results from patent US20230339896A1, “HPK1 INHIBITORS AND USES THEREOF” (QILU REGOR THERAPEUTICS INC., priority 2020, published 2023).

Experiments:
[1] = Metabolic stability in liver microsomes, rat (RLM); assay type: in vitro ADME, Sprague Dawley Rat; settings: 1 µM compound, NADPH; for half-life at 1 µM: Sprague Dawley, rat, liver microsomes, pH 7.4, 0.5 mg/mL protein, read-out: Metabolic Stability T½ (min), RLM
Procedure: This assay is for determining the stability of test compound in liver microsomes. The study will be conducted in accordance with International Bioethical Standards “World Medical Association Declaration of
Human, Sprague Dawley Rat, CD-1 mouse, Beagle Dog and Cynomolgus Monkey Liver Microsomes samples purchased from BD Gentest or RILD.
0.1 M Potassium phosphate buffer, pH 7.4: • Buffer A: 1.0 L of 0.1 M monobasic Potassium Phosphate buffer containing 1.0 mM EDTA • Buffer B: 1.0 L of 0.1 M Dibasic Potassium Phosphate buffer containing 1.0 mM EDTA • Buffer C (K-phosphate buffer): 0.1 M Potassium Phosphate buffer, 1.0 mM EDTA, pH 7.4 by titrating 700 mL of buffer B with buffer A while monitoring the pH meter
• Prepare 3× test compound or positive control solutions: 500 µM spiking solution: add 10 µL of 10 mM DMSO stock solution into 190 µL ACN. • 1.5 µM spiking solution in microsomes (0.75 mg/mL): add 1.5 µL of 500 µM spiking solution and 18.75 µL of 20 mg/mL liver microsomes into 479.75 µL of K-phosphate buffer.
Add 30 µL of 1.5 µM spiking solution containing 0.75 mg/ml microsomes solution to the wells designated for 45 min, 30 min, 15 min, 5 min and 0 min. Pre-incubate the plate at 37° C. for 5 minutes.
Add 15 µL of NADPH stock solution (6 mM) to all of the wells, and start timing. Immediately, add 135 µL of ACN containing IS to the wells designated as Time 0.
At 5 min, 15 min, 30 min and 45 min, add 135 µL of ACN containing IS to the wells, respectively.
After quenching, centrifuge the reaction mixtures at 3220 x g for 10 min.
Transfer 50 µL of the supernatant from each well into a 96-well sample plate containing 50 µL of ultra pure water (Millipore) for LC/MS analysis.
The % parent remaining at each incubation time point is calculated by comparing to the peak area ratio (compound peak area/internal standard peak area) at T0 (0 minute incubation). The ln peak area ratio is plotted against time and the gradient of the line is determined. The half-life and metabolism of compounds is calculated based upon a natural log linear regression of the relative peak areas vs time. The half-life and intrinsic clearance (Clint) in microsomes are calculated using the equations below. • In Vitro T ½ (min) = 0.693/Elimination rate of constant (k) • Clint (µL/min/mg of microsomal protein) = (0.693 / In Vitro T ½) (Incubation Volume/ mg of microsomes)

MDCK permeability assay = assay type: in vitro ADME; settings: dog, MDCK, pH 7.4
Procedure: This assay is for generating screening data only, and to estimate the intestinal absorption potential of drug candidates. The study will be conducted in accordance with International Bioethical Standards “World MedicalAssociation Declaration of Helsinki.
Cell line: • ▪ MDCK (ATCC), or MDCK MDR1 (NKI).
Prepare donor buffer: • For A-to-B direction: • ✔ HBSS buffer with 0.3% DMSO and 5 µM Lucifer Yellow (LY): add 150 µL DMSO and 125 µL LY (2 mM) into 50 mL HBSS buffer (pH 7.4). • ✔ HBSS buffer with 0.1% DMSO and 5 µM Lucifer Yellow (LY): add 50 µL DMSO and 125 µL LY (2 mM) into 50 mL HBSS buffer (pH 7.4). • ✔ HBSS buffer with 5 µM Lucifer Yellow (LY): add 125 µL LY (2 mM) into 50 mL HBSS buffer (pH 7.4). • For B-to-A direction: • ✔ HBSS buffer with 0.3% DMSO: add 150 µL DMSO into 50 mL HBSS buffer (pH 7.4). • ✔ HBSS buffer with 0.1% DMSO: add 50 µL DMSO into 50 mL HBSS buffer (pH 7.4). • ✔ HBSS buffer without DMSO. • Prepare receiver buffer: • For A-to-B direction: Prepare HBSS buffer with 0.4% DMSO: add 200 µL DMSO into 50 mL HBSS buffer (pH 7.4) • For B-to-A direction: Prepare HBSS buffer with 0.4% DMSO and 5 µM LY: add 200 uL DMSO and 125 µL LY (2 mM) into 50 mL HBSS buffer (pH 7.4) • Controls: • Prepare 10 mM stock concentrations of compound in DMSO and Lucifer Yellow in assay buffer using the following formula: • (Actual Weight/Molecular Weight)/mL solvent =10 mM • Reference compound: Erythromycin, Metoprolol, Atenolol
MDCK assay plates are seeded 3-4 days prior to running the assay. 24-well plates are seeded at a cell density of 0.88 × 10^5/well in a 400 µL apical chamber volume (2.2×10^5 /mL) with a 25 mL volume of growth medium to the 24-well basal chamber. Assay plates are generally provided with a growth medium change 24 hours prior to the assay.
MDCK assay plates are rinsed with HBSS+ buffer prior to running the assay. After rinsing, fresh HBSS+ is added to the assay plate in a 400 µL apical chamber volume and a 0.8 mL HBSS+ basal chamber volume. Measure the electrical resistance across the monolayer using the Millicell ERS system ohm meter. (The cells will be used if TEER is higher than 100 ohm*cm^2).
Preparation of the cell plates: • Remove the buffer from the apical side and basolateral side. Add 600 µL of donor solution (for A-to-B) or 500 µL of receiver solution (for B-to-A) to the apical wells based on plate map. • A fresh basolateral plate is prepared by adding 800 µL of receiver solution (for A-to-B) or 900 µL of donor solution (B-to-A) to the well of a new 24-well plate. • Put the apical plate and basolateral plate into 37° C. incubator.
Preparation of analytical plate: • After 5 min, transfer 100 µL of samples from all donors (for both A-to-B and B-to-A) into appropriate wells of a sample plate for D0. And transfer 100 µL of samples from all apical chambers (the donor of A-to-B and receiver of B-to-A) into appropriate wells of a microplate for Lucifer Yellow D0 (D0 LY) • Lay the apical plate to the basolateral plate to start transport process. • At 90 min, separate the apical and basolateral plates and transfer 100 µL of samples from all donors (for both A-to-B and B-to-A) into appropriate wells of a new sample plate for D90, and transfer 200 µL of samples from all receivers into appropriate wells of a sample plate for R90. Transfer 100 µL of samples from all basolateral chambers (receiver of A-to-B and donor of B-to-A) into appropriate wells of a new microplate for Lucifer Yellow R90 (R90 LY). • Determine LY permeability by reading D0 LY and R90 LY at an excitation wavelength of 485 nm and an emission wavelength of 535 nm using a fluorescent plate reader. • Sample preparation: • For receiver solution: 60 µL of sample + 60 µL ACN with IS (200 ng/mL Osalmid) • For donor solution: 6 µL of sample + 54 µL 0.4% DMSO/HBSS + 60 µL ACN with IS (200 ng/mL Osalmid) […]

| SMILES | half-life at 1 µM [1] | Metabolic Stability T½ (min), RLM ([1]; 0.5 mg/mL protein) | Papp A→B at 90 min (MDCK permeability assay) | Papp B→A at 90 min (MDCK permeability assay) |
| --- | --- | --- | --- | --- |
| COc1cc2c(cc1Nc1ncc(Cl)c(N3CC(C)(CC(=O)O)c4ccccc43)n1)CN(C)CC2 (single isomer, unassigned) [Example 2, (R)-2-(1-(5-chloro-2-((6-methoxy-2-methyl-1,2,3,4-tetrahydroisoquinolin-7-yl)amino)pyrimidin-4-yl)-3-methylindolin-3-yl)acetic acid or (S)-2-(1-(5-chloro-2-((6-methoxy-2-methyl-1,2,3,4-tetrahydroisoquinolin-7-yl)amino)pyrimidin-4-yl)-3-methylindolin-3-yl)acetic acid] | 38.4 min | – | – | – |
| CN1CCc2cc(F)c(Nc3ncc(Cl)c(N4C[C@](C)(CC(=O)O)c5ccccc54)n3)cc2C1 (single isomer, unassigned) [Example 5, (R)-2-[1-[5-chloro-2-[(6-fluoro-2-methyl-3,4-dihydro-1H-isoquinolin-7-yl)amino]pyrimidin-4-yl]-3-methyl-indolin-3-yl]acetic acid or (S)-2-[1-[5-chloro-2-[(6-fluoro-2-methyl-3,4-dihydro-1H-isoquinolin-7-yl)amino]pyrimidin-4-yl]-3-methyl-indolin-3-yl]acetic acid] | – | RLM: 23 min | – | – |
| COc1cc2c(cc1Nc1ncc(Cl)c(N3CC(C(=O)O)c4ccccc43)n1)CN(C)CC2 (stereo not drawn) [Compound 7, reference compound] | 4260 min | – | 3.2 ×10⁻⁶ cm/s | 9.4 ×10⁻⁶ cm/s |
| COc1cc2c(cc1Nc1ncc(Cl)c(N3CC(CC(=O)O)c4ccccc43)n1)CN(C)CC2 (stereo not drawn) [Compound 8, reference compound] | 48.2 min | – | 4.5 ×10⁻⁶ cm/s | 38.5 ×10⁻⁶ cm/s |
| COc1cc2c(cc1Nc1ncc(Cl)c(N3CC(C)(CC(=O)O)c4ccc(F)cc43)n1)CN(C)CC2 (stereo not drawn) [Compound 10, reference compound] | 17 min | – | 2.6 ×10⁻⁶ cm/s | 58.9 ×10⁻⁶ cm/s |
| COc1cc2c(cc1Nc1ncc(Cl)c(N3CC(C)(CC(=O)O)c4ccccc43)n1)CN(C)CC2 (stereo not drawn) [Example 1, 2-(1-(5-chloro-2-((6-methoxy-2-methyl-1,2,3,4-tetrahydroisoquinolin-7-yl)amino)pyrimidin-4-yl)-3-methylindolin-3-yl)acetic acid] | – | – | 2.2 ×10⁻⁶ cm/s | 47.8 ×10⁻⁶ cm/s |
| CN1CCc2cc(F)c(Nc3ncc(Cl)c(N4CC(C)(CC(=O)O)c5ccccc54)n3)cc2C1 (stereo not drawn) [Example 4, 2-(1-(5-chloro-2-((6-fluoro-2-methyl-1,2,3,4-tetrahydroisoquinolin-7-yl)amino)pyrimidin-4-yl)-3-methylindolin-3-yl)acetic acid] | – | – | 7.7 ×10⁻⁶ cm/s | 41.1 ×10⁻⁶ cm/s |
